From ChEMBL document CHEMBL1155598, “Microcyclamide, a cytotoxic cyclic hexapeptide from the cyanobacterium Microcystis aeruginosa” (J Nat Prod, 2000)
≈ marks a conversion by molar mass, not a printed value.

Tested on: P388
Experiment: Cytotoxicity against mouse P388 cells after 3 days by MTT assay
Assay type: functional, cell-based
Conditions: P388, 72 h

CC[C@H](C)[C@@H]1NC(=O)c2nc(oc2C)[C@H](C)NC(=O)c2csc(n2)[C@H](Cc2cncn2C)NC(=O)c2csc1n2 [MICROCYCLAMIDE]
IC50: 1.2 µg/mL (≈ 2.06 µM)
